Experimental findings from EP0515159A1, “Ursane derivatives, their preparation and pharmaceutical formulations thereof” (IDB HOLDING S.p.A., priority 1991, dated 1992) are described below.

Structures are written as SMILES. Where a name gives a salt, the structure may show the parent alone. Read-outs that look alike come from different tables or passages of the source.

Data set [1] concerns alcohol-induced gastric lesions. Nature of the data set: Alcohol-induced ulcer (gastric lesions) in the rat. The class given is in vivo. The settings on record: for inhibition at 50 mg/kg: dose 50.0 mg/kg os; for inhibition at 100 mg/kg: dose 100.0 mg/kg os; for inhibition at 200 mg/kg: dose 200.0 mg/kg os; for ED50: by mouth, inhibition of alcohol-induced gastric lesions, read-out: ED₅₀ mg/kg and confidence limits (p = 0.95); for ED50 / oral therapeutic indices (LD₅₀/ED₅₀) Alcohol-induced ulcer: rat; for R: potency ratio relative to Carbenoxolone (= 1.0), alcohol-induced lesions; for inhibition at 12.5 mg/kg: dose 12.5 mg/kg os; for oral therapeutic indices (LD₅₀/ED₅₀) Alcohol-induced ulcer: oral LD50 / ED50 in alcohol-induced ulcer; for inhibition at 6.25 mg/kg: dose 6.25 mg/kg os. Here is the method:
The gastric lesions were induced in male Sprague-Dawley rats weighing 120-140 g, which had been fasted for 48 h, by administering 1 ml/rat of 90% alcohol by mouth. One hour after administration of the damage-inducing agent, the animals were sacrifed in an excess of ether and the stomachs opened along the major curvature; the gastric lesions were measured in mm² and expressed as the percentage of inhibition compared with the controls. The substances under investigation, suspended in 0.5% Methocel, were administered by mouth 1 hour before the alcohol.

In data set [2] the test system is Diclofenac-induced gastric ulcers. Kind of data set: Diclofenac-induced ulcer (gastric lesions) in the rat. The format is in vivo. To be noted: for ED50: by mouth, inhibition of Diclofenac-induced gastric lesions, read-out: ED₅₀ and confidence limits (p = 0.95); for ED50 / oral therapeutic indices (LD₅₀/ED₅₀) Diclofenac-induced ulcer: rat; for % Inhibition: 1 h before 100 mg/kg Diclofenac, sacrifice 5 h after; for R: potency ratio relative to Carbenoxolone (= 1.0), Diclofenac-induced ulcers; for oral therapeutic indices (LD₅₀/ED₅₀) Diclofenac-induced ulcer: oral LD50 / ED50 in Diclofenac-induced ulcer. The procedure:
Female Sprague-Dawley rats weighing 180-200 g that had been fasted for 24 h were used in this experiment. The gastric lesions were induced by a single oral dose of 100 mg/kg Diclofenac.
The animals were sacrificed 5 h after administration of the damage-inducing agent. The gastric lesions were measured in mm² and expressed as a percentage of inhibition.
The substances under investigation, suspended in 0.5% Methocel, were administered by mouth 1 h before the anti-inflammatory agent.

A short description of data set [3]: Acute toxicity in the rat. The settings on record: in vivo; for LD50 at 14 days: both sexes, Sprague-Dawley; for LD50 at 336 h: 14 days observation. Here is the method:
The acute toxicity of compounds IIa and IIb (M=Na) was evaluated in the rat after oral and intraperitoneal administration.
Each experimental group comprised 5 male and 5 female Sprague-Dawley rats. After being treated, the animals were kept under observation for 14 days and the dose that caused the death of 50% of the animals (LD₅₀) was calculated by the probit method (Finney D J. in "Probit Analysis", Cambridge University Press, 3rd Ed., Cambridge, 1971). The results shown in Table 4 indicate that, after intraperitoneal administration, the toxicity of both compounds is similar to that of the reference product.

A short description of data set [4]: Antidiuretic activity: effects on urinary excretion in the rat. The settings on record: for Electrolyte output, mEq/6h/rat K^+ / Electrolyte output, mEq/6h/rat Na^+ / Na^+/K^+ / Urine volume (0-6 h): urine collected 6 hours after fifth dose. The class given is in vivo. The procedure: The effect of compounds IIa and IIb (M=Na) on urinary excretion was investigated in male Sprague-Dawley rats weighing 180-200 g. […] Carbenoxolone in a dose of 200 mg/kg was used as a reference substance. The animals were fasted for 18 h before the last dose. The urine was collected for 6 hours after administration of the fifth dose and its content of Na⁺ and K⁺ was measured.

The mark [5] stands for this setting: Rattus norvegicus, 1 hour before 90% alcohol, lesions in mm² vs controls.
[6] abbreviates: 200 mg/kg os once a day for 5 days.
Setting [7] is: ip, intraperitoneal, probit method, read-out: LD50 (confidence limits p = 0.95) mg/kg i.p.
Setting [8] is: oral, 1000 mg/kg (LD10) = maximum dose that could be administered (2 doses of 500 mg/kg 1 h apart), read-out: LD50 (confidence limits p = 0.95) mg/kg p.o.
The mark [9] stands for this setting: 20 mg/kg os once a day for 5 days.

For `C[C@H]1[C@H](C)CC[C@]2(C(=O)O)CC[C@]3(C)C(=CC=C4[C@@]5(C)CC[C@H](OC(=O)CCC(=O)O)C(C)(C)[C@@H]5CC[C@]43C)[C@H]12` [3β-(carboxy-propionyloxy)-ursa-9(11),12-dien-28-oic acid], in data set [1] (setting [5]), the inhibition (commonly the share of the control response that was lost under treatment) at 50 mg/kg was found to be 28.4%, the inhibition at 100 mg/kg is 45.6% and at 200 mg/kg the inhibition was 76.3%. Also, the inhibition at 400 mg/kg in data set [1] (Rattus norvegicus, dose 400.0 mg/kg os, 1 hour before 90% alcohol, lesions in mm² vs controls) came out at 80.1%. In addition, in data set [1], the ED50 worked out at 106 mg/kg and the R turned out to be 0.8.

In the case of `CC1(C)[C@@H](OC(=O)c2ccccc2C(=O)O)CC[C@]2(C)[C@H]3CC=C4[C@@H]5C[C@@](C)(COC(=O)c6ccccc6C(=O)O)CC[C@]5(C)CC[C@@]4(C)[C@]3(C)CC[C@@H]12` [18β-olean-12-ene-3β,3-0-diol di-0-hemiphthalate], the ED50 in data set [2] is 38.9 mg/kg; in data set [1], 14.6 mg/kg. The % Inhibition – broadly, how much of the control response was suppressed – turned out to be 1.5% in data set [2] (dose 3.125 mg/kg os), 5.9% in data set [2] (dose 6.25 mg/kg os), 21.5% in data set [2] (dose 12.5 mg/kg os) and 29.8% in data set [2] (dose 25.0 mg/kg os). In addition, the values for the R in data set [2] and in data set [1] were 3.5 and 5.6, respectively. This molecule had an inhibition at 0.8 mg/kg in data set [1] (Rattus norvegicus, dose 0.8 mg/kg os, 1 hour before 90% alcohol, lesions in mm² vs controls) of 12%. In data set [1] (Rattus norvegicus, dose 3.12 mg/kg os, 1 hour before 90% alcohol, lesions in mm² vs controls), this molecule came in with an inhibition at 3.12 mg/kg of 32%. Further, the inhibition at 12.5 mg/kg in data set [1] (setting [5]) is 40.8%. For the same molecule, 50 mg/kg produced 70.2% inhibition in data set [1] (setting [5]).

For the molecule `CC1(C)[C@@H](OC(=O)CCC(=O)O)CC[C@]2(C)[C@H]3C(=O)C=C4[C@@H]5C[C@@](C)(C(=O)O)CC[C@]5(C)CC[C@@]4(C)[C@]3(C)CC[C@@H]12` [Carbenoxolone, sodium salt of the hemisuccinate of β-glycyrrhetic acid], in data set [2], the ED50 is 140 mg/kg, the “oral therapeutic indices (LD₅₀/ED₅₀) Diclofenac-induced ulcer” value is on record as 22 and the R was found to be 1.0. Further, the “% Inhibition” value in data set [2] (dose 100.0 mg/kg os) was determined as 37.2%. Also, in data set [2] (dose 150.0 mg/kg os), the “% Inhibition” value is recorded as 45.6%. Besides, the “% Inhibition” value in data set [2] (dose 200.0 mg/kg os) was 72.7%. In addition, in data set [2] (dose 400.0 mg/kg os), the “% Inhibition” value was 90.9%. Further, the LD50 at 14 days in data set [3] (ip) turned out to be 92 mg/kg. In addition, the LD50 at 14 days in data set [3] (po) turned out to be 3100 mg/kg. Besides, in data set [1] (setting [5]), the inhibition at 50 mg/kg came to 34.9%, the inhibition at 100 mg/kg came to 45% and the inhibition at 200 mg/kg is 83%. Also, in data set [1], the ED50 is 90.4 mg/kg, the “oral therapeutic indices (LD₅₀/ED₅₀) Alcohol-induced ulcer” value came out at 34 and the R was 1.0. In data set [4] (setting [6]), the “Electrolyte output, mEq/6h/rat K^+” value stood at 0.12±0.01 mEq/6h/rat; the “Electrolyte output, mEq/6h/rat Na^+” value is listed as 0.10±0.01 mEq/6h/rat; the “Na^+/K^+” value is listed as 0.8; the “Urine volume (0-6 h)” value is 1.5 ± 0.2 mL. Further, the “Na^+/K^+” value in data set [4] (200 mg/kg os once a day for 5 days, listed as carbenoxolone) is listed as 0.5. Besides, in data set [4] (200 mg/kg, versus controls), the reducing diuresis is 67% and the “reduction in the excretion of Na⁺” value is 72%.

Take `C[C@H]1[C@H](C)CC[C@]2(COC(=O)c3ccccc3C(=O)O)CC[C@]3(C)C(=CC[C@@H]4[C@@]5(C)CC[C@H](OC(=O)c6ccccc6C(=O)O)C(C)(C)[C@@H]5CC[C@]43C)[C@H]12` [IIa (M = Na), disodium salt of the dihemiphthalate or urs-12-ene-3β,28-diol]: in data set [2], the ED50 amounted to 7 mg/kg, the “oral therapeutic indices (LD₅₀/ED₅₀) Diclofenac-induced ulcer” value is on record as more than 143 and the R is recorded as 16.3. Further, the “% Inhibition” value in data set [2] (dose 3.125 mg/kg os) is 8.9%. In data set [2] (dose 6.25 mg/kg os), the “% Inhibition” value is listed as 28.3%. Moreover, the “% Inhibition” value in data set [2] (dose 7.5 mg/kg os) stood at 62.3%. Besides, the “% Inhibition” value in data set [2] (dose 9.0 mg/kg os) was 67.9%. In addition, the LD50 at 336 h in data set [3] (setting [7]) amounted to 60 mg/kg. Besides, in data set [3] (setting [8]), the LD50 at 336 h was more than 1000 mg/kg. In addition, testing at 2 mg/kg in data set [1] (Rattus norvegicus, dose 2.0 mg/kg os, 1 hour before 90% alcohol, lesions in mm² vs controls) gave an inhibition of 16.1%. Besides, testing at 2.5 mg/kg in data set [1] (Rattus norvegicus, dose 2.5 mg/kg os, 1 hour before 90% alcohol, lesions in mm² vs controls) gave an inhibition of 22.1%. This molecule registered an inhibition at 3.125 mg/kg in data set [1] (Rattus norvegicus, dose 3.125 mg/kg os, 1 hour before 90% alcohol, lesions in mm² vs controls) of 65.2%. This molecule yielded an inhibition at 6.25 mg/kg in data set [1] (setting [5]) of 67.4%. Also, in data set [1], the ED50 amounted to 3.7 mg/kg, the “oral therapeutic indices (LD₅₀/ED₅₀) Alcohol-induced ulcer” value is more than 270 and the R turned out to be 25.6. In addition, in data set [4] (setting [9]), the “Electrolyte output, mEq/6h/rat K^+” value came to 0.14±0.01 mEq/6h/rat; the “Electrolyte output, mEq/6h/rat Na^+” value stood at 0.21±0.01 mEq/6h/rat; the “Na^+/K^+” value is given as 1.5; the “Urine volume (0-6 h)” value is 3.0 ± 0.2 mL.

Regarding `C[C@H]1[C@H](C)CC[C@]2(COC(=O)c3ccccc3C(=O)O)CC[C@]3(C)C(=CC=C4[C@@]5(C)CC[C@H](OC(=O)c6ccccc6C(=O)O)C(C)(C)[C@@H]5CC[C@]43C)[C@H]12` [IIb (M = Na), disodium salt of the dihemiphthalate of ursa-9(11),12-diene-3β,28-diol], in data set [2], the ED50 is 6.4 mg/kg, the “oral therapeutic indices (LD₅₀/ED₅₀) Diclofenac-induced ulcer” value is recorded as more than 156 and the R was determined as 17.8. Moreover, in data set [2] (dose 3.125 mg/kg os), the “% Inhibition” value was 37.4%. Further, the “% Inhibition” value in data set [2] (dose 6.25 mg/kg os) was found to be 43.3%. Also, in data set [2] (dose 12.5 mg/kg os), the “% Inhibition” value is recorded as 72.0%. Besides, the “% Inhibition” value in data set [2] (dose 25.0 mg/kg os) turned out to be 73.3%. In addition, the LD50 at 336 h in data set [3] (setting [7]) is 75 mg/kg. For the same molecule, the LD50 at 336 h in data set [3] (setting [8]) is more than 1000 mg/kg. In data set [1] (setting [5]), the inhibition at 6.25 mg/kg was determined as 10.7% and the inhibition at 12.5 mg/kg stood at 32.5%. Further, in data set [1] (Rattus norvegicus, dose 16.0 mg/kg os, 1 hour before 90% alcohol, lesions in mm² vs controls), at 16 mg/kg the inhibition was 38.2%. In data set [1] (Rattus norvegicus, dose 25.0 mg/kg os, 1 hour before 90% alcohol, lesions in mm² vs controls), this molecule returned an inhibition at 25 mg/kg of 76.6%. Further, in data set [1], the ED50 stood at 16.8 mg/kg, the “oral therapeutic indices (LD₅₀/ED₅₀) Alcohol-induced ulcer” value is on record as more than 60 and the R was 5.5. Moreover, in data set [4] (setting [9]), the “Electrolyte output, mEq/6h/rat K^+” value is recorded as 0.13±0.02 mEq/6h/rat; the “Electrolyte output, mEq/6h/rat Na^+” value is 0.19±0.02 mEq/6h/rat; the “Na^+/K^+” value is 1.5; the “Urine volume (0-6 h)” value came to 2.8 ± 0.3 mL.
